These compounds were tested against T1, LRRK2(G2019S mutation, GST-LRRK2(amino acids 970-2527)) (Homo sapiens, UniProt Q5S007, G2019S) (assay: LRRK2 Km ATP LanthaScreen Assay). Conditions: Km ATP LanthaScreen Assay; LRRK2 G2019S; mean IC50 values; Examples 185-215; read-out: LRRK2 IC5).
T1 construct: GST-LRRK2(amino acids 970-2527); GST (N); purchased Life Technologies Corporation
Format: biochemical
Procedure: Unless otherwise noted, all LRRK2 IC50 data presented in tables refers to the LRRK2 Km ATP LanthaScreen™ Assay that is described in the Biological Assay section.
The data presented for the 5 mM and Km ATP LanthaScreen™ Assay represents mean IC50 values based on several test results and may have reasonable. deviations depending on the specific conditions and reagents used. Reagents for the LRRK2 5 mM and Km ATP LanthaScreen™ Assay were purchased from Life Technologies Corporation.
Results are analysed using Assay Data Analyzer.

T1 sequence (Q5S007 970-2527 G2019S): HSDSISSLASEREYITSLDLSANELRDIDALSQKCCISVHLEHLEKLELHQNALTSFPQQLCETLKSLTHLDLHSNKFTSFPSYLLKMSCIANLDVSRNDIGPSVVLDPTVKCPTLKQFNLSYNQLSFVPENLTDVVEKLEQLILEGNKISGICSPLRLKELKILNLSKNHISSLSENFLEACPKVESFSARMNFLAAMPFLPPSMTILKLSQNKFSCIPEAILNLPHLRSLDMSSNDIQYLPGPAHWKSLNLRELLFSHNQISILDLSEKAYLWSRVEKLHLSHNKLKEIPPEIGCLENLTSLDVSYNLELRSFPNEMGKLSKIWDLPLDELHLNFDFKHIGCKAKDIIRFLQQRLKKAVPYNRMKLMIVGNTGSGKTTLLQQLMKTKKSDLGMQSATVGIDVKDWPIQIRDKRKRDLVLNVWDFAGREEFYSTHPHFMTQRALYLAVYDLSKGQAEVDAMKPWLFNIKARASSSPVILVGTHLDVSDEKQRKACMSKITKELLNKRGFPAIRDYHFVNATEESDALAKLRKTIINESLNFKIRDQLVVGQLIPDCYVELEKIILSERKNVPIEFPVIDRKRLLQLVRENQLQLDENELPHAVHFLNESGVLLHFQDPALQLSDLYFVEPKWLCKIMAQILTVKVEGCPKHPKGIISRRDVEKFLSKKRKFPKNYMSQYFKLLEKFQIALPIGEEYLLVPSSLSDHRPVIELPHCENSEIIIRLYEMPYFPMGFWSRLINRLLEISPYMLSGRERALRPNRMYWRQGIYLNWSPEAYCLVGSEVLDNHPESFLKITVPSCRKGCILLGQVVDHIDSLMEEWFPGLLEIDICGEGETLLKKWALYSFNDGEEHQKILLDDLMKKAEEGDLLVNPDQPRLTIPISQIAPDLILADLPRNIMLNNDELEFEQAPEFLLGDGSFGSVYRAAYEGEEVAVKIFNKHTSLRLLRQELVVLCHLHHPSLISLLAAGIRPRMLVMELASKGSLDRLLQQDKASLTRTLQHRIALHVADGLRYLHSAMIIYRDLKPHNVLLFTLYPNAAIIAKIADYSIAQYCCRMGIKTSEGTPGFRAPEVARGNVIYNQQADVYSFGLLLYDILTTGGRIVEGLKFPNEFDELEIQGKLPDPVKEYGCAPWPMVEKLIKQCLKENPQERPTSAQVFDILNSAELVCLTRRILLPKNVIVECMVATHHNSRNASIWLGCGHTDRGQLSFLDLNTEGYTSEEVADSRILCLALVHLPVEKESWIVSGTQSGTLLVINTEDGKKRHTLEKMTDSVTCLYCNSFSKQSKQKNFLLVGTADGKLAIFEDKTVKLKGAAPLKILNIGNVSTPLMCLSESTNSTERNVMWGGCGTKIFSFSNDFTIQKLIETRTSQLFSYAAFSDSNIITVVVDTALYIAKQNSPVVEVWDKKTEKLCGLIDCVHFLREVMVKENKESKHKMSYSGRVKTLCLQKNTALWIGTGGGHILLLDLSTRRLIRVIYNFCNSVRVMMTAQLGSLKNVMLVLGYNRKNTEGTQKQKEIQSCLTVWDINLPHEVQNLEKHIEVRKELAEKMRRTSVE

Compound | IC50
CC(C)Oc1ccc2[nH]nc(-c3ccnc(N4CCn5nc(C6CC6)nc5C4)c3)c2c1 [Example 214] | 15.4 nM
CC(C)Oc1ccc2[nH]nc(-c3ccnc(N4CC(n5cccn5)C4)c3)c2c1 [Example 190] | 13.2 nM
Cc1nnc(C2CCN(c3cc(-c4n[nH]c5ccc(OC(C)C)cc45)ccn3)CC2)o1 [Example 215] | 6 nM
Cc1nonc1N1CCN(c2cc(-c3n[nH]c4ccc(OC(C)C)cc34)ccn2)CC1 [Example 207] | 20.8 nM
CC(C)Oc1ccc2[nH]nc(-c3ccnc(N4CCS(=O)(=O)c5ccccc5C4)c3)c2c1 [Example 186] | 154 nM
CC(C)Oc1ccc2[nH]nc(-c3ccnc(N4CCN(c5cnccn5)CC4)c3)c2c1 [Example 202] | 6.4 nM
CC(C)Oc1ccc2[nH]nc(-c3ccnc(N4CC[S+]([O-])CC4)c3)c2c1 [Example 191] | 7.4 nM
Cc1ncc(N2CCN(c3cc(-c4n[nH]c5ccc(OC(C)C)cc45)ccn3)CC2)s1 [Example 206] | 10.5 nM

Same assay, conditions: Km ATP LanthaScreen Assay; LRRK2 G2019S; mean IC50 values; read-out: LRRK2 IC50

Compound | IC50
c1ccc2c(-c3ccnc(N4CCCC4)c3)n[nH]c2c1 [Example 5] | 17 nM
CC(C)Oc1ccc2[nH]nc(-c3ccnc(NCc4ccccn4)c3)c2c1 [Example 132] | 2.2 nM
CN1CCN(c2cc(-c3n[nH]c4ccccc34)ccn2)CC1=O [Example 46] | 21 nM
FC(F)(F)Oc1ccc2[nH]nc(-c3ccnc(N4CCN(C5CC5)CC4)c3)c2c1 [Example 244] | 188 nM
CS(=O)(=O)c1cccc(Nc2ccc3[nH]nc(-c4ccnc(NC5CC5)c4)c3c2)c1 [Example 112] | 11 nM
CN(Cc1ccc2[nH]nc(-c3ccnc(N4CCOCC4)c3)c2c1)C1CCCC1 [Example 92] | 54 nM
c1ccc(C2CCN(c3cc(-c4n[nH]c5ccccc45)ccn3)CC2)nc1 [Example 22] | 20 nM
CC(C)CCC(=O)Nc1cc(-c2n[nH]c3ccc(OC(C)C)cc23)ccn1 [Example 149] | 79.6 nM
Cc1nc(C)c(CC(=O)Nc2cc(-c3n[nH]c4ccc(OC(C)C)cc34)ccn2)s1 [Example 163] | 34.9 nM
FC(F)(F)Oc1ccc2[nH]nc(-c3ccnc(N4CCN(n5cccn5)CC4)c3)c2c1 [Example 239] | 233 nM
CO[C@H]1CN(c2cc(-c3n[nH]c4ccc(OC(F)(F)F)cc34)ccn2)C[C@@H]1O [Example 238] | 165 nM
Oc1ccc2[nH]nc(-c3ccnc(N4CCCCC4)c3)c2c1 [Example 254] | 10.1 nM
COC1CN(Cc2ccc3[nH]nc(-c4ccnc(N5CCOCC5)c4)c3c2)C1 [Example 91] | 161 nM
CCOc1ccc2[nH]nc(-c3ccnc(N4CC[C@@H](OC)C4)c3)c2c1 [Example 227] | 11.3 nM
FC1CCN(CCCNc2cc(-c3n[nH]c4ccccc34)ccn2)C1 (centres unmarked) [Example 62] | 46 nM
CC(C)Oc1ccc2[nH]nc(-c3ccnc(NC(=O)C4CC(=O)C4)c3)c2c1 [Example 153] | 29.7 nM
c1ccc2c(-c3ccnc(NCCn4ccnc4)c3)n[nH]c2c1 [Example 64] | 35 nM
OC[C@H]1CCN(c2cc(-c3n[nH]c4ccc(OC(F)(F)F)cc34)ccn2)C1 [Example 248] | 96 nM
CC(C)Oc1ccc2[nH]nc(-c3ccnc(NC(=O)c4ccccc4-n4cncn4)c3)c2c1 [Example 146] | 36.8 nM
O=C1CCCC2(CCN(c3cc(-c4n[nH]c5ccccc45)ccn3)CC2)N1 [Example 61] | 14 nM
c1ccc2c(c1)CN(c1cc(-c3n[nH]c4ccccc34)ccn1)C2 [Example 7] | 87 nM
CC(C)Oc1ccc2[nH]nc(-c3ccnc(NC(=O)C(C)c4ccccc4)c3)c2c1 (centres unmarked) [Example 151] | 51.9 nM

Compound | IC50
c1cc(-c2n[nH]c3ccc(CNC4CCCNC4)cc23)cc(N2CCOCC2)n1 (centres unmarked) [Example 96] | 110 nM
CN(C)CCC(Nc1cc(-c2n[nH]c3ccccc23)ccn1)c1ccccn1 (centres unmarked) [Example 45] | 72 nM
CC(C)Oc1ccc2[nH]nc(-c3ccnc(N4CCc5ccccc5C4)c3)c2c1 [Example 139] | 18.1 nM
COc1ccc(C2CC2C(=O)Nc2cc(-c3n[nH]c4ccc(OC(C)C)cc34)ccn2)cc1 (centres unmarked) [Example 159] | 782 nM
OC1CCN(c2cc(-c3n[nH]c4ccc(OC(F)(F)F)cc34)ccn2)CC1 [Example 231] | 82.7 nM
FC1(F)CCN(c2cc(-c3n[nH]c4ccccc34)ccn2)CC1 [Example 28] | 57 nM
CC(C)Oc1ccc2[nH]nc(-c3ccnc(N4CC(O)(C(F)(F)F)C4)c3)c2c1 [Example 182] | 10.8 nM
N#CC1(c2ccccn2)CCN(c2cc(-c3n[nH]c4ccccc34)ccn2)CC1 [Example 17] | 16 nM
CN1CCC(Nc2cc(-c3n[nH]c4ccccc34)ccn2)C1=O (centres unmarked) [Example 68] | 108 nM
CC(C)Oc1ccc2[nH]nc(-c3ccnc(NC(=O)C4CCOCC4)c3)c2c1 [Example 164] | 27.7 nM
F[C@H]1COC[C@@H]1Nc1cc(-c2n[nH]c3ccccc23)ccn1 [Example 38] | 79 nM
CN(CC1CCC(=O)N1)c1cc(-c2n[nH]c3ccccc23)ccn1 (centres unmarked) [Example 69] | 75 nM
CC(C)Oc1ccc2[nH]nc(-c3ccnc(N4CCC(c5ccncc5)C4)c3)c2c1 (centres unmarked) [Example 175] | 2.2 nM
CC(C)Oc1ccc2[nH]nc(-c3ccnc(NC(=O)C4CCN(c5ccccn5)C4)c3)c2c1 (centres unmarked) [Example 167] | 78 nM
FC1(F)CCN(c2cc(-c3n[nH]c4ccc(OC(F)(F)F)cc34)ccn2)C1 [Example 245] | 1490 nM
CC(C)Oc1ccc2[nH]nc(-c3ccnc(NC(=O)CC4CCC(=O)N4)c3)c2c1 (centres unmarked) [Example 165] | 23.4 nM
CN1CC=C2CN(c3cc(-c4n[nH]c5ccccc45)ccn3)CC21 (centres unmarked) [Example 55] | 14 nM
CC(C)Oc1ccc2[nH]nc(-c3ccnc(NC(=O)C4CC(F)(F)C4)c3)c2c1 [Example 166] | 73.5 nM
Cc1cc(CC(=O)Nc2cc(-c3n[nH]c4ccc(OC(C)C)cc34)ccn2)on1 [Example 155] | 13.4 nM
CCNc1cc(-c2n[nH]c3ccc(Nc4cccc(S(C)(=O)=O)c4)cc23)ccn1 [Example 111] | 35 nM
CCOc1ccc2[nH]nc(-c3ccnc(N4CCN(C)C(=O)C4)c3)c2c1 [Example 217] | 4.9 nM

Same assay, conditions: Km ATP LanthaScreen; mean IC50 of several tests; read-out: LRRK2 IC50

Compound | IC50
Cn1cc(-c2ccc3[nH]nc(-c4ccnc(N5CCN(c6ccncn6)CC5)c4)c3c2)cn1 [Example 277] | 2.1 nM
OCCc1ccc2[nH]nc(-c3ccnc(N4CCOCC4)c3)c2c1 [Example 333] | 30 nM
CCN(c1cccc(C)c1)c1ccc2[nH]nc(-c3ccnc(N4CCOCC4)c3)c2c1 [Example 115] | 1570 nM
CC(C)Oc1ccc2[nH]nc(-c3ccnc(NS(C)(=O)=O)c3)c2c1 [Example 395] | 20 nM
CCOc1nccnc1-c1ccc2[nH]nc(-c3ccnc(N4CCOCC4)c3)c2c1 [Ex 390] | 1.6 nM
CC(C)Oc1ccc2[nH]nc(-c3ccnc(N4CCC(F)(F)C4)c3)c2c1 [Example 286] | 5.5 nM
CC(C)Oc1ccc2[nH]nc(-c3ccnc(NS(=O)(=O)c4ccc(C5(C#N)CC5)cc4)c3)c2c1 [Example 263] | 60.8 nM
Cn1cc(-c2ccc3[nH]nc(-c4ccnc(N5CC(F)(F)C5)c4)c3c2)cn1 [Example 274] | 4.2 nM
CCC(C)Oc1ccc2[nH]nc(-c3ccnc(N4CCOCC4)c3)c2c1 (centres unmarked) [Example 291] | 2.2 nM
Cc1ncc(-c2cc3c(-c4ccnc(N5CC(F)C5)c4)n[nH]c3cc2F)n1C [Example 310] | 95 nM
O=C(c1ccccc1)c1ccc2[nH]nc(-c3ccnc(N4CCOCC4)c3)c2c1 [Example 107] | 3.4 nM
Fc1ccc2c(-c3ccnc(N4CCOCC4)c3)n[nH]c2c1 [Example 392] | 32 nM
CCCOc1ccc2[nH]nc(-c3ccnc(N4CCN(S(C)(=O)=O)CC4)c3)c2c1 [Example 295] | 17 nM
CCOc1ccc2[nH]nc(-c3ccnc(N4CCC(F)(F)CC4)c3)c2c1 [Example 288] | 22 nM
Cn1cc(-c2ccc3[nH]nc(-c4ccnc(N5CC[C@H](F)C5)c4)c3c2)cn1 [Example 278] | 1.9 nM
CC(O)Cc1cc2c(-c3ccnc(N4CCOCC4)c3)n[nH]c2cc1F (centres unmarked) [Example 350] | 76 nM
CC(C)Oc1ccc2[nH]nc(-c3ccnc(NS(=O)(=O)c4ccc(C(C)(C)C#N)cc4)c3)c2c1 [Example 264] | 68.8 nM
Cc1nnc(-c2ccc3[nH]nc(-c4ccnc(N5CC(F)C5)c4)c3c2)o1 [Example 308] | 4.9 nM
CCS(=O)(=O)c1ccc2[nH]nc(-c3ccnc(N4CCOCC4)c3)c2c1 [Example 371] | 48 nM
COc1ccnc(F)c1-c1ccc2[nH]nc(-c3ccnc(N4CCOCC4)c3)c2c1 [Example 117] | 3.4 nM
FC(F)(F)Oc1ccc2[nH]nc(-c3ccnc(N4CCOCC4)c3)c2c1 [Example 374] | 28 nM
CS(=O)(=O)Cc1cc2c(-c3ccnc(N4CCOCC4)c3)n[nH]c2cc1F [Example 372] | 1210 nM
Cn1cc(-c2ccc3[nH]nc(-c4ccnc(N5CCN(c6nnc(C7CC7)o6)CC5)c4)c3c2)cn1 [Example 276] | 2.7 nM
Cc1nnc(-c2ccc3[nH]nc(-c4ccnc(N5CCOCC5)c4)c3c2)o1 [Ex 342] | 0.61 nM
Cn1cc(-c2ccc3[nH]nc(-c4ccnc(N5CC6CCC(C5)O6)c4)c3c2)cn1 [Example 380] | 1.9 nM
FC1CN(c2cc(-c3n[nH]c4ccc(-c5cccnc5)cc34)ccn2)C1 [Example 306] | 2.9 nM
CC(C)Oc1ccc2[nH]nc(-c3ccnc(N4CCOC5(CC5)C4)c3)c2c1 [Example 378] | 7.5 nM
Oc1ccc2[nH]nc(-c3ccnc(N4CCOCC4)c3)c2c1 [Example 78] | 5.3 nM
Oc1ccnc(F)c1-c1ccc2[nH]nc(-c3ccnc(N4CCOCC4)c3)c2c1 [Example 119] | 34 nM
